Test results from patent US9549551B2, “Active compound combinations having insecticidal properties” (priority 2013, dated 2017).
Where two headings read alike, the source gives them in different places.

Tests used:
Format in all cases: in vivo
[1] = system: mustard beetle larvae (Phaedon cochleariae); assay: Phaedon cochleariae - spray test; settings: foliar, 144 h, read-out: Efficacy in % after 6d (mortality)
From the text: (§1) The expected activity for a given combination of two active compounds can be calculated according to S. R. Colby, Weeds 15 (1967), 20-22 as follows: • If • X is the efficacy expressed in % mortality of the untreated control for test compound A at a concentration of m ppm respectively m g/ha, • Y is the efficacy expressed in % mortality of the untreated control for test compound B at a concentration of n ppm respectively n g/ha, • E is the efficacy expressed in % mortality of the untreated control using the mixture of A and B at m and n ppm respectively m and n g/ha,
(§2) If the observed insecticidal efficacy of the combination is higher than the one calculated as “E”, then the combination of the two compounds is more than additive, i.e., there is a synergistic effect.
To produce a suitable preparation of active compound, 1 part by weight of active compound is mixed with the stated amount of solvent and emulsifier, and the concentrate is diluted with emulsifier-containing water to the desired concentration. To produce a suitable preparation of a spore suspension the spores are diluted with emulsifier-containing water to the desired concentration.
Chinese cabbage (Brassica pekinensis) leaf-disks are sprayed with a preparation of the active ingredient of the desired concentration. Once dry, the leaf disks are infested with mustard beetle larvae (Phaedon cochleariae).
After the specified period of time, mortality in % is determined. 100% means all beetle larvae have been killed and 0% means none of the beetle larvae have been killed. The mortality values determined thus are recalculated using the Colby-formula (see sheet 1).

[2] = system: green peach aphid (Myzus persicae); assay: Myzus persicae - spray test
From the text: as §1, §2
(§3) To produce a suitable preparation of active compound, 1 part by weight of active compound is mixed with the stated amount of solvent and emulsifier, and the concentrate is diluted with emulsifier-containing water to the desired concentration.
Chinese cabbage (Brassica pekinensis) leaf-disks infected with all instars of the green peach aphid (Myzus persicae) are sprayed with a preparation of the active ingredient of the desired concentration.
After the specified period of time, mortality in % is determined 100% means all aphids have been killed; 0% means none of the aphids have been killed. The mortality values determined thus are recalculated using the Colby-formula (see sheet 1).

[3] = system: larvae of the diamondback moth (Plutella xylostella); assay: Plutella xylostella - spray test; settings: cabbage leaves
From the text: as §1, §2
as §3, with “concentration Ammonium salt and/or penetration enhancer in a dosage of 1000 ppm are added to the desired concentration if necessary. […]” for “concentration.”
After the specified period of time, the mortality in % is determined. […] The mortality values determined thus are recalculated using the Colby-formula (see sheet 1).

SMILES: Cc1cc(C(F)(C(F)(F)F)C(F)(F)F)ccc1NC(=O)c1cccc(Cl)c1C(=O)NC(C)(C)C#N [(I-5)]
- mortality at 2.5 g/ha ([1]; 2.5 g ai/ha, Chinese cabbage leaf disks, 6 d): 0%
- mortality at 4 g/ha ([1]; 4 g ai/ha, Chinese cabbage leaf disks, 6 d): 0%
- mortality at 12 g/ha ([1]; 12 g ai/ha, Chinese cabbage leaf disks, 6 d): 0%
- mortality at 1.25 g/ha ([2]; Myzus persicae, foliar, 144 h, 1.25 g ai/ha, Chinese cabbage leaf disks, 6 d, read-out: Efficacy in % after 6d (mortality)): 0%
- mortality at 1.5 g/ha ([2]; Myzus persicae, foliar, 144 h, 1.5 g ai/ha, Chinese cabbage leaf disks, 6 d, read-out: Efficacy in % after 6d (mortality)): 0%
- mortality at 15 g/ha ([2]; Myzus persicae, foliar, 144 h, 15 g ai/ha, Chinese cabbage leaf disks, 6 d, read-out: Efficacy in % after 6d (mortality)): 0%

SMILES: O=C(NCCc1ncc(C(F)(F)F)cc1Cl)c1ccccc1C(F)(F)F [Fluopyram, fluopyram]
- mortality at 50 ppm ([3]; Plutella xylostella, 72 h, 50 ppm, 3 d, read-out: Efficacy in % after 3d (mortality)): 0%
- mortality at 100 g/ha ([1]; in Brassica rapa): 0%

SMILES: O=C1C=C(N(Cc2ccc(Cl)nc2)CC(F)F)CO1 [Flupyradifurone]
- Efficacy in % after 2d (mortality) ([3]; 1.25 ppm, 2 d): 0%
- Efficacy in % after 6d (mortality) ([2]; 0.5 g ai/ha, Chinese cabbage leaf disks, 6 d): 0%

SMILES: CC(c1ccc(C(F)(F)F)nc1)S(C)(=O)=NC#N (stereo not shown) [Sulfoxaflor (II-13), Sulfoxaflor]
- mortality at 0.16 g/ha ([1]; in Brassica rapa): 0%
- mortality at 12 g/ha ([1]; in Brassica rapa): 0%
- mortality at 0.3 g/ha ([2]; Myzus persicae, in Brassica rapa, foliar, 144 h, read-out: Efficacy in % after 6d (mortality)): 70%
